According to US9308269B2, “Stable liquid formulations of volatile gas anesthetics” (UNIVERSITY OF MIAMI, priority 2011, dated 2016):

Key:
[1] = system: Murine insulinoma beta-TC3 (β-TC3) cells; experiment: Anesthetic preconditioning against H2O2 oxidative stress, cell viability by FACS; type: cell-based
Procedure: Murine insulinoma beta-TC3 (β-TC3) cells were used as a surrogate source of β-cells in vitro. […] FIG. 26 is illustrative of the experimental design for the present study. Cells were then harvested and assayed for viability via FACS analysis (Live/Dead far red, and TMRE, mitochondrial fluorescent dye to detect apoptosis). Data was analyzed using ANOVA with post hoc Tukey for multiple comparisons.

p38 MAPK = p38 MAPK activity after H2O2 oxidative stress in β-TC3 cells; type: cell-based, murine
Procedure: Murine insulinoma beta-TC3 (β-TC3) cells were used as a surrogate source of β-cells in vitro. The β-TC3 cells were incubated for 48 hours, and then subdivided into four (4) groups, with three (3) series of cell cultures per group repeated in triplicate. Group 1 were sham cultured β-TC3 cells; group 2 cells were subdivided into those pre-treated with 0.5 mM isoflurane for 15 minutes or 60 minutes without H2O2, followed by an isoflurane washout; group 3 cells were exposed only to 0.3 mM H2O2 for 3 hours; group 4 cells were pre-treated with isoflurane for 15 minutes or 60 minutes, as in group 2, followed by an isoflurane washout and exposure to 0.3 mM H2O2 for 3 hours. FIG. 26 is illustrative of the experimental design for the present study.

[2] = Isoflurane concentration in stored emulsion measured by weight; type: physicochemical; settings: open container, about 21° C.
Procedure: A standard curve for determining isoflurane concentration was generated based upon 1 mL mixtures of a base solution, i.e., 2% w/v surfactant plus PBS or HBSS; 10% v/v FC-43; and, various known v/v % isoflurane concentrations. A 1 mL aliquot of each of these mixtures was weighed and compared to its expected weight based on the density of each component, and a predicted density of each mixture. The predicted or expected density of each mixture was determined by the following equation: ρexpected=ν%A*ρA+ν%BρB+ν%CρC
where ρ is the density, and A, B, C are the surfactant solution, PCF or FC-43, and isoflurane, respectively. FIG. 8 is a standard curve generated in accordance with the procedure of this example for the determination of isoflurane concentration by weight. The measured values were compared to the theoretical values, or ρexpected, and a high degree of correlation, R^2>0.99, was observed, as illustrated in FIG. 9.
From the standard curve generated of the mixtures, the content of isoflurane in any emulsion can be determined by weighing a known volume, for example, a 1 mL aliquot. and tabulating the known portions of the weight, e.g., the volume percentages of the base solution and PCF, i.e., FC-43, and calculating the unknown volume by dividing the remaining weight by the density of pure isoflurane. […]

[3] = Isoflurane concentration and loss over time measured by ATR-FTIR (1300-1260 cm^-1); type: physicochemical; settings: exposed to air
Procedure: In accordance with the present example, ATR-FTIR spectra were recorded on a PerkinElmer Spectrum 100 FTIR spectrometer equipped with a KBr beam splitter, 1 bounce Universal Di/ZnSe ATR sampling accessory, and electronically, temperature-stabilized fast recovery deuterated triglycine sulfate detector. The spectra generated are an average of four scans at a resolution of 4 cm^−1. Emulsion samples of 50 μL each were obtained from each of the emulsions described below, and the emulsion samples were measured by covering the measurement surface. Standard curves were generated by manufacturing emulsions of known volume percentage isoflurane by gravimetric determination, performing ATR-FTIR measurements and then, taking area under the curve (“AUC”) determinations of peaks in the region specific to fluorine bond vibration (1300-1000 cm^−1). […]
From these peaks, measurements of the area under the curve (“AUC”) for each of the two spectral regions, once again, 1300-1260 cm^−1 and 1225-1011 cm^−1, were used to generate standard curves of isoflurane concentration. […] The two curves were generated to evaluate the possibility of isoflurane loss during the emulsification process, as a comparison between the two standard curves would allow for assessment of error in emulsion manufacture and allow for more accurate quantification. […]

## OO [H2O2, hydrogen peroxide]
[1]; 0.3 mM H2O2 for 3 hours alone
  β-TC3 cell survival compared to controls: 44±13%
p38 MAPK; treatment by H2O2 alone
  p38 MAPK activity: increased protein kinase activity

## FC(F)OC(Cl)C(F)(F)F (centres unmarked) [isoflurane]
[2]
  time to essentially complete evaporation: over 0.5 hours
[2]; after about 0.2 hours
  fraction of sample evaporated: ~50%
[3]
  time to complete evaporation on ATR-FTIR crystal: ≤ 10 s
[1]; 0.5 mM isoflurane pretreatment 15 minutes, washout, then 0.3 mM H2O2 for 3 hours
  β-TC3 cell survival compared to controls: 98±2%
[1]; 0.5 mM isoflurane pretreatment 60 minutes, washout, then 0.3 mM H2O2 for 3 hours
  β-TC3 cell survival compared to controls: 105±0%
p38 MAPK; isoflurane pretreatment, compared to cells exposed to H2O2 alone
  p38 MAPK activity: significantly decreased p38 MAPK activity
